From patent publication US20140275094A1, “METHOD FOR TREATING PULMONARY ARTERIAL HYPERTENSION IN A PATIENT NOT HAVING IDIOPATHIC PULMONARY FIBROSIS” (GILEAD SCIENCES, INC., priority 2012, published 2014)

Key:
[1] = target: T1, sodium taurocholate cotransporting polypeptide (NTCP) (Homo sapiens, UniProt Q14973); test: Inhibition of hepatic transporter NTCP, transfected CHO cells; assay type: cell-based
T1 construct: expressed in transfected cells; host or cells: Chinese Hamster Ovary (CHO)
T1 sequence (Q14973 1-349): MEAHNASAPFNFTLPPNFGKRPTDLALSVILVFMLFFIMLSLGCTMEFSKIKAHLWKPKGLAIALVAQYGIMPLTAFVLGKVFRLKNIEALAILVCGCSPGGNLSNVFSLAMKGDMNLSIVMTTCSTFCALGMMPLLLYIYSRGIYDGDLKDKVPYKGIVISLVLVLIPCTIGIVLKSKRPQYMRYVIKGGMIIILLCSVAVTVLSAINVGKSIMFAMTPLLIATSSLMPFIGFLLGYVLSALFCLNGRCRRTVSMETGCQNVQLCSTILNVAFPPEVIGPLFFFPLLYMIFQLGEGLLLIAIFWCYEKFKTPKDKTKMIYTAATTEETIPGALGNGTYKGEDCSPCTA
Experimental: (§1) Inhibition constants (IC50) were measured for human bile salt export pump (BSEP), sodium taurocholate cotransporting polypeptide (NTCP), multidrug resistance protein 2 (MRP2), P-glycoprotein (Pgp), breast cancer resistance protein (BCRP), organic anion-transporting polypeptide 1B1 (OATP1B1), and OATP1B3 in transfected cell-lines. Known inhibitors were used as positive controls.

[2] = target: T2, organic anion-transporting polypeptide 1B1 (OATP1B1) (Homo sapiens, UniProt Q9Y6L6); test: Inhibition of OATP1B1, transfected CHO cells; assay type: cell-based
T2 construct: expressed in transfected cells; host or cells: CHO
T2 sequence (Q9Y6L6 1-691): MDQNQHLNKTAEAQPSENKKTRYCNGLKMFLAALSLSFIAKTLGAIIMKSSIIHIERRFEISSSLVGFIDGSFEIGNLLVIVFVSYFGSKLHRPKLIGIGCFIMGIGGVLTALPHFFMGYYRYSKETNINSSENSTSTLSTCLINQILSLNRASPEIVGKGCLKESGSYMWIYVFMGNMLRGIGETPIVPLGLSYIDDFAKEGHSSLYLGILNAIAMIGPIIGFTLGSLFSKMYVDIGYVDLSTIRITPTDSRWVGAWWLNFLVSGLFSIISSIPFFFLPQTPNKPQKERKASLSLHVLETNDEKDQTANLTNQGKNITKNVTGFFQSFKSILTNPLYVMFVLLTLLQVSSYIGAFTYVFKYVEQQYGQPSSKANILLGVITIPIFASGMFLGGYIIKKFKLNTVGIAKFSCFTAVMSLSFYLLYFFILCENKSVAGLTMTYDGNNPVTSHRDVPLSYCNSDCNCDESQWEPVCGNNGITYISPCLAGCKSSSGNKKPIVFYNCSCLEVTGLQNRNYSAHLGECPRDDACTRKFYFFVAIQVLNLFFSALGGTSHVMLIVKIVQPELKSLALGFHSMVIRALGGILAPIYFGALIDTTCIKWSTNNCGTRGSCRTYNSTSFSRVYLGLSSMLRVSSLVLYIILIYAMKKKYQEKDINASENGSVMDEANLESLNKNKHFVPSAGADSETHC
Experimental: as §1

OATP1B3 = target: T3, OATP1B3 (Homo sapiens, UniProt Q9NPD5); test: Inhibition of OATP1B3, transfected CHO cells; assay type: cell-based; conditions: OAT1B3
T3 construct: expressed in transfected cells; host or cells: CHO
T3 sequence (Q9NPD5 1-702): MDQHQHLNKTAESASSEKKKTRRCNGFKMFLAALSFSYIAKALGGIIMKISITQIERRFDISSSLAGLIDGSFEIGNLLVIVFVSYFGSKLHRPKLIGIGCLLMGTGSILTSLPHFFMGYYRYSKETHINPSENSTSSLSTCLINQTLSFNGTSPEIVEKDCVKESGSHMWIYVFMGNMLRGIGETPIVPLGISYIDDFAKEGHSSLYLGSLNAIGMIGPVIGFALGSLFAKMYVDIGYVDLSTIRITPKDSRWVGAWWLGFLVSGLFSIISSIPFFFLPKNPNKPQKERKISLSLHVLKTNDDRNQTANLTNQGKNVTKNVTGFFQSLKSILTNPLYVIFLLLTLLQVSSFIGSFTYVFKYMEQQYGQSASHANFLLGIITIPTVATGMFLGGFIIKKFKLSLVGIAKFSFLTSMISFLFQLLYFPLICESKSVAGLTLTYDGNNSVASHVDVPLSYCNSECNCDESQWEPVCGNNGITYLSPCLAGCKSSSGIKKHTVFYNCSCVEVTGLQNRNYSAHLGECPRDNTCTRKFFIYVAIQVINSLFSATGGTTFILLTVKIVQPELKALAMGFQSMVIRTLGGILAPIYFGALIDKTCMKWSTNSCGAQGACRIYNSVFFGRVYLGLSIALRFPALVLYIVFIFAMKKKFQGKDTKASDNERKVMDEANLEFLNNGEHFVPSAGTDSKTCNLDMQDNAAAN
Experimental: as §1

human hepatocytes = conditions: cited from earlier work
[3] = target: T4, human bile salt export pump (BSEP) (Homo sapiens, UniProt O95342); test: Inhibition of hepatic transporter BSEP, Sf9 cell membrane vesicles; assay type: biochemical
T4 construct: expressed in transfected cells; host or cells: Sf9 cell membrane vesicles
Experimental: as §1

T4 sequence (O95342 whole entry): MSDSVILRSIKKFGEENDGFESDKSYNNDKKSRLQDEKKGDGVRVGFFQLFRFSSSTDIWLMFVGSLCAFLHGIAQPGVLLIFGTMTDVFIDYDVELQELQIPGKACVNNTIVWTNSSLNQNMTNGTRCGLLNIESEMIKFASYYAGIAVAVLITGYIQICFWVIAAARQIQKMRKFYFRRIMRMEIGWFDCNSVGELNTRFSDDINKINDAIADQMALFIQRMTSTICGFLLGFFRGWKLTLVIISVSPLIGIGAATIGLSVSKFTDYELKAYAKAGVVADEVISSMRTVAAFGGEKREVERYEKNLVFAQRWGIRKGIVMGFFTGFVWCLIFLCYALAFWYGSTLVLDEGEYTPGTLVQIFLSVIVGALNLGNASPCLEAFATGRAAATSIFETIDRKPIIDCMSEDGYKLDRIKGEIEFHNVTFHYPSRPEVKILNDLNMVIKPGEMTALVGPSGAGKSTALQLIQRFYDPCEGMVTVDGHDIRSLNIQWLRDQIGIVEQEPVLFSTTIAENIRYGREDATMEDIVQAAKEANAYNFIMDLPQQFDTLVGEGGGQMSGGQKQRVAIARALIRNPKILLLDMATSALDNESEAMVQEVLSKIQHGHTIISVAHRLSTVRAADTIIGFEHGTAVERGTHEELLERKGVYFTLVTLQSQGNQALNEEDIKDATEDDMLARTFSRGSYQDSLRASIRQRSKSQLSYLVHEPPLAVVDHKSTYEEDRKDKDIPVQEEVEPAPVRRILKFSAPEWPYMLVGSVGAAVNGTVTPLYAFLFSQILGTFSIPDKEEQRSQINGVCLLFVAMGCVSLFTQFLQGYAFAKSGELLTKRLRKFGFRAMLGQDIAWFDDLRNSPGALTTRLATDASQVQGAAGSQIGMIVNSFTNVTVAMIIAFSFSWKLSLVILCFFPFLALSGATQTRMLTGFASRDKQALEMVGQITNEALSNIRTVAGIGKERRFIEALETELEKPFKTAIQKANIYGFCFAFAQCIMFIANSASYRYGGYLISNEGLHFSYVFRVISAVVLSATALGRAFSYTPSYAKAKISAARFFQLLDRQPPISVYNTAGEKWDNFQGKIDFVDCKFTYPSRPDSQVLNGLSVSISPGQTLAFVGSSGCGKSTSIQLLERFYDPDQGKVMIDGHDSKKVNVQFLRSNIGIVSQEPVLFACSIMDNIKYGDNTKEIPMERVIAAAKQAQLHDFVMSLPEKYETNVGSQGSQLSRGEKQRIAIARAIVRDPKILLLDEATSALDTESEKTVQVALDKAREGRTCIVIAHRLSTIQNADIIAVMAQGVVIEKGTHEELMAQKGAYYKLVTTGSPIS

Structure (SMILES)	effect on NTCP [1]	IC50 ([1]; NTCP)	IC50 [2]	IC50 (OATP1B3)	effect on hepatobiliary transporter activity (human hepatocytes)	effect on BSEP [3]	IC50 ([3]; BSEP)
COc1ccccc1Oc1c(NS(=O)(=O)c2ccc(C(C)(C)C)cc2)nc(-c2ncccn2)nc1OCCO [Bosentan]	inhibition was observed	36.5 µM	5 ± 2 µM	5.2 ± 2.1 µM	decreased transporter activity to the greatest extent	inhibition was observed	54.4 µM
COC(c1ccccc1)(c1ccccc1)[C@H](Oc1nc(C)cc(C)n1)C(=O)O [Ambrisentan, (25)-2-[(4,6-dimethylpyrimidin-2-yl)oxy]-3-methoxy-3,3-diphenylpropanoic acid]	no measurable effect	–	47 ± 21.3 µM	44.6 ± 23.8 µM	less potent	no measurable effect	–
